Data: a melting point compilation (Tetko et al.; mined from patent text by program, amines drawn as free bases though some values may be those of a salt)

| Compound | melting point [°C] |
| --- | --- |
| Cc1occ(C(F)(F)F)c1C(=O)O | 140 |
| Cc1ccc(C2c3c(C)c(N4CCN(C(=O)c5ccc(C#N)cc5)CC4)c(C)c(C)c3OC2(C)C)cc1 (centres undefined) | 159 to 161 |
| Cc1ccc(S(=O)(=O)Cc2cccc(C(F)(F)F)c2)cc1 | 139 to 140 |
| CC(=O)NC[C@H]1CN(c2ccc(C(=O)c3cnc4cnc(Br)cn34)cc2)C(=O)O1 | 216 to 220 |
| CC(C)(C)OC(=O)Nc1ccc(-c2ccc(F)cc2F)cc1NC(=O)CC(=O)c1ccnc(C#N)c1 | 160 to 161 |
| CCOc1cc2c(cc1O)C(=O)CC1C2CCC2(C)C(O)CCC12 (centres undefined) | 194 to 196 |
| C=COCCN1C(=O)N(CN2C(=O)N(CCOC=C)C(=O)C2(C)C)C(C)(C)C1=O | 90 to 92 |
| C=C(C)C(=O)OCCCCCc1ccc(C(F)(F)Oc2ccc(OC(F)(F)c3ccc(CCCCCOC(=O)C(=C)C)cc3)c(C)c2)cc1 | 26 |
| CC(=O)c1ccc(-c2ccc(C(=O)Nc3ccc4cc(CN5CCCC5)cnc4c3C)cc2)s1 | 194 to 195 |
| Nc1ccc(CN2C(=O)[C@H]3CCC[C@H]3N(C(=O)CN3C(=O)c4ccccc4C3=O)c3ccccc32)cc1 (relative stereo) | 286 to 289 |
| CCOc1ccc(C(=O)NC/C=C/c2ccccc2)cc1 | 132 |
| N#Cc1ccc(CBr)c([N+](=O)[O-])c1 | 85 to 89 |
| CCn1c(=O)c2c(nc(/C=C/c3cccc(OC(C)=O)c3)n2C)n(CC)c1=O | 206 to 207 |
| O=Cc1nn(-c2ccc(Cl)cc2)nc1-c1ccccc1 | 110 to 111 |
| CCOc1cc(CN2C(=O)c3ccccc3C2=O)c2c(c1)Oc1c(ccc(OCC)c1CO[Si](C)(C)C(C)(C)C)N2CC | 158 to 159 |
| Cc1cn2c(C)nc3c(C)nn(C)c3c2n1 | 198 to 200 |
| CCCCC(=O)c1c(C(C)(C)C)cc(C=[N+]([O-])C(C)(C)C)cc1C(C)(C)C | 196 to 205 |
| CCn1cc(C(=O)O)c(=O)c2cc(F)c(N3CCN(C)C(COC(C)C)C3)cc21 (centres undefined) | 184 to 186 |
| O=C1N(Cc2cnc(N3CCOCC3)s2)c2ccccc2C12COc1cc3c(cc12)OCO3 (centres undefined) | 97 to 99 |
| CC(C)(C)OC(=O)N1CCn2c(Cl)c(-c3cccc(C#N)c3)c(C(=O)O)c2C1 | 208 to 210 |
| Cc1cc2oc(=O)c3c(c2cc1[N+](=O)[O-])CCNC3 | 197 to 199 |
| CCCCC[C@H]1CC[C@H](c2ccc(-c3ccc(C#N)cc3)cc2)CC1 | 93 |
| O=C(O)c1cn(CC2CCCCC2)c2cc(Cl)ccc12 | 170 to 172 |
| COCCOc1ccc(/C=C/C(=O)O)c(Oc2ncc(C(F)(F)F)cc2Cl)c1 | 132 |
| CC(C)CCC1C(=O)N(c2c(F)c(F)nc(F)c2F)S(=O)(=O)N1C (centres undefined) | 80.5 to 81.5 |

| Compound | melting point [°C] |
| --- | --- |
| NC(=O)c1cc2ccccc2nc1N | 240 to 242 |
| CC1(C)CCC(C)(C)c2cc(CC#Cc3ccc(C(=O)N4CCOCC4)cc3)ccc21 | 98 to 99 |
| CC(C)=CCOc1ccc(C2=C(CC(C)C)C(=O)NC2=O)cc1 | 110 to 111 |
| CC(CO)(Sc1cc2cc(O)ccc2[nH]1)c1ccccc1 (centres undefined) | 143 to 145 |
| CCc1ccc(-c2nc(-c3ccccc3Cl)nn2C)c(Cl)c1 | 75.5 to 77.5 |
| Cc1c(NC(=O)c2ccc(OCc3ccccc3)cc2)ccc2cc(CN3CCCC3)cnc12 | 177 to 178 |
| COc1ccc(C(C#N)C2(O)CCCCC2)cc1 (centres undefined) | 125 to 127 |
| CS(=O)(=O)c1ccc2c(c1)C=C(C(=O)O)C(C(F)(F)F)O2 (centres undefined) | 208 to 212 |
| CC(C)(C)OC(=O)NCC(=O)Nc1cccc(NC(=N)N2CCCC2)c1 | 182 to 183 |
| CCCCC(=O)N[C@@H]1CN2C(=O)N(c3cc(Cl)nc(Cl)c3)C(=O)[C@@]2(Cc2ccc(OC(F)(F)F)cc2)C1 | 66.8 |
| Fc1cc(Br)cc(OCc2ccc3ccccc3c2)c1 | 65 to 67 |
| COC(C)=CC(=O)Nc1cccc(Br)c1 | 110 |
| C=C(n1c(=O)n(CCCl)c2ccccc21)C(F)(F)F | 158 to 160 |
| CCCC(=O)c1ccc(C(CC(=O)Nc2cc(C(N)=O)ccc2C(C)(C)C)CC(C)C)c(OC)c1 (centres undefined) | 189 to 190 |
| CN1CCC(c2c[nH]c3ccc(NC(=O)c4cccnc4)nc23)CC1 | 136 to 137 |
| O=c1c2ncn(C3OC(COC(c4ccccc4)(c4ccccc4)c4ccccc4)C(O)C3O)c2ncn1Cc1ccccc1 (centres undefined) | 208 to 209 |
| Nc1c([N+](=O)[O-])cc(F)c(Cl)c1Br | 146 to 147 |
| O=C(O)c1ccc2c(c1)S(=O)(=O)c1ccccc1-2 | 312 |
| Cc1ccccc1C(=O)Nc1ccc(C(=O)N2Cc3ccccc3Cc3ccccc32)cc1 | 198 to 203 |
| c1cnc2ncncc2c1 | 249 to 252 |
| CNC(=O)c1cnn(-c2ccccc2)c1C#N | 203 to 205 |
| CC(=NOCCOc1ccc(CC2SC(=O)NC2=O)cc1)c1ccc(O)cc1 (centres undefined) | 157 to 159 |
| CCCOc1ccc(/C=C/C(=O)OC(C)(C)C)cc1-c1nc2c(CCC)nn(C)c2c(=O)[nH]1 | 167 to 168 |
| CN(C)C(=O)N(O)Cc1cc2ccccc2s1 | 145 to 147 |
